Measurements taken from PubChem BioAssay AID2060899 (Molecular Pharmacology Branch, DTP, NCI, 2025).

Tested on: 565726-208-R1-J5-PDC complex spheroids, growth inhibition
Assay: Anticancer human tumor 565726-208-R1-J5-PDC patient-derived pancreatic adenocarcinoma cell line growth inhibition [RAS]
Conditions: for IC50: curve of first compound; for viability, T/C: stronger effect = lower value
Method in brief: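 Multi-cell-type spheroids: tumor cells plus HUVEC endothelial cells and mesenchymal stem cells. RAS-pathway inhibitors were combined with targeted agents, each dosed in half-log steps down from clinical Cmax, or from 10 microM when Cmax was unknown.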
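Also: spheroids exposed to compounds for seven days before readout.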
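For viability, T/C in this document: 100% = DMSO vehicle control viability.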

In the case of `C=CC(=O)Nc1cc(Nc2nccc(-c3cn(C)c4ccccc34)n2)c(OC)cc1N(C)CCN(C)C` + C#Cc1c(F)ccc2cc(O)cc(-c3ncc4c(N5CC6CCC(C5)N6)nc(OCC56CCCN5CC(F)C6)nc4c3F)c12, the IC50 (second compound 0.0316 µM) is reported as greater than 1000 nM, the IC50 (second compound 0.1 µM) is reported as greater than 1000 nM and the IC50 (second compound 0.316 µM) is reported as greater than 1000 nM. For the same molecule, the IC50 (second compound 1 µM) was greater than 1000 nM, the IC50 (second compound 3.16 µM) was greater than 1000 nM and the IC50 (second compound 10 µM) was 70.9 nM. The viability, T/C (second compound 0.0316 µM, first compound 0.00316 µM) was 120%, the viability, T/C (second compound 0.0316 µM, first compound 0.01 µM) was 139% and the viability, T/C (second compound 0.0316 µM, first compound 0.0316 µM) was 96.1%. For the same molecule, the viability, T/C (second compound 0.0316 µM, first compound 0.1 µM) was 101%, the viability, T/C (second compound 0.0316 µM, first compound 0.316 µM) was 130% and the viability, T/C (second compound 0.0316 µM, first compound 1 µM) was 103%. It also gave a viability, T/C (second compound 0.1 µM, first compound 0.00316 µM) of 113%, a viability, T/C (second compound 0.1 µM, first compound 0.01 µM) of 144% and a viability, T/C (second compound 0.1 µM, first compound 0.0316 µM) of 102%. For the same molecule, the viability, T/C (second compound 0.1 µM, first compound 0.1 µM) was 92.3%, the viability, T/C (second compound 0.1 µM, first compound 0.316 µM) was 121% and the viability, T/C (second compound 0.1 µM, first compound 1 µM) was 97.5%. For the same molecule, the viability, T/C (second compound 0.316 µM, first compound 0.00316 µM) was 127%, the viability, T/C (second compound 0.316 µM, first compound 0.01 µM) was 130% and the viability, T/C (second compound 0.316 µM, first compound 0.0316 µM) was 88.9%. It also gave a viability, T/C (second compound 0.316 µM, first compound 0.1 µM) of 77.6%, a viability, T/C (second compound 0.316 µM, first compound 0.316 µM) of 113% and a viability, T/C (second compound 0.316 µM, first compound 1 µM) of 98.1%. The viability, T/C (second compound 1 µM, first compound 0.00316 µM) was 138%, the viability, T/C (second compound 1 µM, first compound 0.01 µM) was 110% and the viability, T/C (second compound 1 µM, first compound 0.0316 µM) was 76.7%. For the same molecule, the viability, T/C (second compound 1 µM, first compound 0.1 µM) was 68.1%, the viability, T/C (second compound 1 µM, first compound 0.316 µM) was 87.1% and the viability, T/C (second compound 1 µM, first compound 1 µM) was 84.7%. The viability, T/C (second compound 3.16 µM, first compound 0.00316 µM) was 120%, the viability, T/C (second compound 3.16 µM, first compound 0.01 µM) was 85.2% and the viability, T/C (second compound 3.16 µM, first compound 0.0316 µM) was 65%. The viability, T/C (second compound 3.16 µM, first compound 0.1 µM) was 51.2%, the viability, T/C (second compound 3.16 µM, first compound 0.316 µM) was 72% and the viability, T/C (second compound 3.16 µM, first compound 1 µM) was 74%. For the same molecule, the viability, T/C (second compound 10 µM, first compound 0.00316 µM) was 89.4%, the viability, T/C (second compound 10 µM, first compound 0.01 µM) was 86.5% and the viability, T/C (second compound 10 µM, first compound 0.0316 µM) was 64.1%. It also gave a viability, T/C (second compound 10 µM, first compound 0.1 µM) of 41.2%, a viability, T/C (second compound 10 µM, first compound 0.316 µM) of 50.7% and a viability, T/C (second compound 10 µM, first compound 1 µM) of 40.1%.

In the case of `Cc1nc(N2CCC3(CC2)COC(C)C3N)c(CO)nc1Sc1ccnc(N)c1Cl` (centres undefined) + CCn1c(-c2cccnc2C(C)OC)c2c3cc(ccc31)N1CCOC(CC(NC(=O)C(C(C)C)N(C)C(=O)C3(F)CCN(C(=O)C#CC(C)(C)N(C)C)CC3)C(=O)N3CCCC(N3)C(=O)OCC(C)(C)C2)C1, the IC50 (second compound 0.000949 µM) is reported as greater than 10000 nM, the IC50 (second compound 0.003 µM) is reported as greater than 10000 nM and the IC50 (second compound 0.00949 µM) is reported as greater than 10000 nM. For the same molecule, the IC50 (second compound 0.03 µM) was greater than 10000 nM, the IC50 (second compound 0.0949 µM) was greater than 10000 nM and the IC50 (second compound 0.3 µM) was greater than 10000 nM. For the same molecule, the viability, T/C (second compound 0.000949 µM, first compound 0.0316 µM) was 95.1%, the viability, T/C (second compound 0.000949 µM, first compound 0.1 µM) was 92.8% and the viability, T/C (second compound 0.000949 µM, first compound 0.316 µM) was 84.9%. It also gave a viability, T/C (second compound 0.000949 µM, first compound 1 µM) of 73.7%, a viability, T/C (second compound 0.000949 µM, first compound 3.16 µM) of 80% and a viability, T/C (second compound 0.000949 µM, first compound 10 µM) of 66.5%. For the same molecule, the viability, T/C (second compound 0.003 µM, first compound 0.0316 µM) was 104%, the viability, T/C (second compound 0.003 µM, first compound 0.1 µM) was 97% and the viability, T/C (second compound 0.003 µM, first compound 0.316 µM) was 86.6%. It also gave a viability, T/C (second compound 0.003 µM, first compound 1 µM) of 77%, a viability, T/C (second compound 0.003 µM, first compound 3.16 µM) of 71% and a viability, T/C (second compound 0.003 µM, first compound 10 µM) of 70.6%. For the same molecule, the viability, T/C (second compound 0.00949 µM, first compound 0.0316 µM) was 83.4%, the viability, T/C (second compound 0.00949 µM, first compound 0.1 µM) was 97.3% and the viability, T/C (second compound 0.00949 µM, first compound 0.316 µM) was 86.3%. The viability, T/C (second compound 0.00949 µM, first compound 1 µM) was 76.5%, the viability, T/C (second compound 0.00949 µM, first compound 3.16 µM) was 79.7% and the viability, T/C (second compound 0.00949 µM, first compound 10 µM) was 71.6%. The viability, T/C (second compound 0.03 µM, first compound 0.0316 µM) was 95.5%, the viability, T/C (second compound 0.03 µM, first compound 0.1 µM) was 87.3% and the viability, T/C (second compound 0.03 µM, first compound 0.316 µM) was 92.8%. It also gave a viability, T/C (second compound 0.03 µM, first compound 1 µM) of 89.3%, a viability, T/C (second compound 0.03 µM, first compound 3.16 µM) of 81.5% and a viability, T/C (second compound 0.03 µM, first compound 10 µM) of 69.6%. For the same molecule, the viability, T/C (second compound 0.0949 µM, first compound 0.0316 µM) was 81%, the viability, T/C (second compound 0.0949 µM, first compound 0.1 µM) was 98.2% and the viability, T/C (second compound 0.0949 µM, first compound 0.316 µM) was 85.1%. It also gave a viability, T/C (second compound 0.0949 µM, first compound 1 µM) of 69.8%, a viability, T/C (second compound 0.0949 µM, first compound 3.16 µM) of 77.4% and a viability, T/C (second compound 0.0949 µM, first compound 10 µM) of 78.8%. For the same molecule, the viability, T/C (second compound 0.3 µM, first compound 0.0316 µM) was 91.2%, the viability, T/C (second compound 0.3 µM, first compound 0.1 µM) was 79.8% and the viability, T/C (second compound 0.3 µM, first compound 0.316 µM) was 79.4%. It also gave a viability, T/C (second compound 0.3 µM, first compound 1 µM) of 69.8%, a viability, T/C (second compound 0.3 µM, first compound 3.16 µM) of 70.2% and a viability, T/C (second compound 0.3 µM, first compound 10 µM) of 59.2%.
